Measurements from patent US11866424B2, “Aggregation-induced emission luminogens for photodynamic therapy” (The Hong Kong University of Science and Technology, priority 2020, dated 2024).

Tests used:
[1] = UV-Vis and photoluminescence spectroscopy (optical properties, AIE characteristics); type: physicochemical; conditions: for λabs: Absorption maximum in DMSO (TFPy and TPE-TFPy) and H2O (TFVP) solution, 10 μM; for λem (Soln.): Emission maximum in DMSO (TFPy and TPE-TFPy) and H2O (TFVP) solution at 10 μM; for ΦF (Aggr.) / ΦF (Soln.) / ΦF (Solid.): Fluorescence quantum yield; for ΦF (Aggr.): aggregation state in 5% DMSO + 95% Toluene or 5% H2O + 95% THF (TFVP); for ΦF (Soln.): calibrated integrating sphere, DMSO (TFPy, TPE-TFPy) or H2O (TFVP) solution; for ΦF (Solid.) / stokes shifts / λem (Solid.): solid state; for λem (Aggr.): aggregation state in 5% DMSO + 95% Toluene (TFPy and TPE-TFPy) or 5% H2O + 95% THF (TFVP); for Iaggr,max/Isoln: emission intensity in 5% DMSO + 95% Toluene (TFPy, TPE-TFPy) or 5% H2O + 95% THF (TFVP) relative to solution; for ε: solution
Excerpt: All the chemicals were purchased from Meryer, J&K, or Sigma as received without further purification. Superdry (99.9%) DCM and methanol with molecular sieves were purchased from J&K Scientific. Toluene was distilled from sodium and benzophenone under nitrogen prior to use. Phosphate buffered saline (PBS) was purchased from Thermo Fisher Scientific. ABDA, Ce6 and Rose Bengal were purchased from Sigma-Aldrich and used as received. Cell culture medium and fetal bovine serum (FBS) were purchased from GIBCO (Gran Island, NY, USA). Mitotracker Green, CellMask Green, and LysoTracker Green were purchased from ThermoFisherScientific. 1H NMR (400 MHz), 13C NMR (100 MHz) spectra were recorded on a Bruker ARX 400 Spectrometer with CDCl3 or d6-DMSO as deuterated solvent. High resolution mass spectra (HRMS) were performed on a Finnigan MAT TAQ 7000 mass spectrometer system operating in matrix-assisted laser desorption/ionization time of flight mass spectrometry (MALDI-TOF) mode. UV-Vis absorption and fluorescence spectra were recorded with Milton Roy Spectronic 3000 array spectrophotometer. Fluorescence images of AIEgens in solution and aggregation state were collected on an Olympus BX 41 fluorescence microscope. Cellular fluorescence images were taken using a Zeiss laser scanning confocal microscope (LSM7 DUO) and analyzed using ZEN 2009 software (Carl Zeiss). Theoretical study was carried out on 6-311G* basis set in Gaussian09 using density functional theory (DFT) approximated by ωB97X-D.
The photophysical properties of TFPy, TFVP and TPE-TFPy were characterized by UV-Vis and photoluminescence spectroscopies at the concentration of 10 μM as shown in FIG. 2 and summarized in Table 1. […] Due to different solubility behavior, the AIE characteristics of TFPy and TPE-TFPy were investigated in DMSO/toluene mixture with different toluene fractions, whereas TFVP was measured in H2O/THF mixture (FIGS. 2C and 2D, FIG. 8). Taking TFVP as an example, TFVP was barely emissive when fully dissolved in water. Upon increasing THF fraction, fluorescence emission intensity got boosted accordingly with a 218-time increment when THF fraction reached 95%. […] In addition, upon the increase of THF or toluene as poor solvent, the emission wavelengths of three AIEgens were blue-shifted owing to the decrease of solvent polarity, manifesting TICT attributes, which is again ascribed to their D-A feature.

[2] = ROS generation measurement with ABDA indicator under white light; conditions: 1 μM sample, 10 μM ABDA, DMSO/water 1/100, white light 4.2 mW·cm^−2, up to 6 min; compared with Ce6 and Rose Bengal
Protocol: 9,10-Anthracenediyl-bis(methylene)dimalonic acid (ABDA) was employed to detect ROS generation of TFPy, TFVP, TPE-TFPy, and two commercial standard photosensitizer, Rose Bengal, and Ce6 upon light irradiation. The absorbance of each sample (1 μM) was firstly set as blank. Then, 10 μM of ABDA was mixed to each sample (DMSO/water (v:v)=1/100) in a dark room, and the absorbance of sample was measured at once. The sample mixture was then irradiated under white light (4.2 mW/cm^−2) at intervals of 1 min until 6 min. The absorption of ABDA at 378 nm was recorded at various irradiation times to obtain the decay rate of photosensitizing process. The absorbance change of ABDA alone in 6 min light irradiation time was also measured as control.
Preliminary study was conducted by evaluating capability of ROS generation of three AIEgens. 9,10-Anthracenediyl-bis-(methylene)-dimalonic acid (ABDA) whose absorption will decrease once oxidized by ROS was utilized as an indicator. […] Ce6 and Rose Bangel, two well-known commercially available standard photosensitizers, were engaged as comparison.

HeLa cells = assay: HeLa cell imaging / co-localization with commercial organelle probes (CLSM); type: cell-based; conditions: for subcellular organelle visualized after incubation: CLSM, excitation 488 nm; for Pearson's coefficient (co-localization efficiency): co-staining with MitoTracker Green (TFPy), CellMask Green (TFVP), LysoTracker Green (TPE-TFPy)
Protocol: Hela cells were seeded and cultured at 37° C. in a 35 mm glass-bottomed dish. After incubation with TFPy (1 μM), TFVP (5 μM), or TPE-TFPy (2 μM), the cells were washed with PBS three times and subjected to imaging analysis using a Zeiss Laser Scanning Confocal Microscope. All of three AIEgens can be excited with 488 nm filter and the emission filter was 570-740 nm. For co-staining assay, the TFPy, TFVP, and TPE-TFPy loaded Hela cells were subjected to incubation with MitoTracker Green, CellMask Green, and LysoTracker Green, respectively. Hoechst 33258 (5 μM) was also utilized to stain nuclear DNA to assist visualizing. Afterwards, the cells were washed with PBS and then observed with CLSM. The cells were imaged using appropriate excitation and emission filters for each dye. The co-localization efficiency was analyzed with Olympus FV10-ASW software, in which the calculated Pearson's coefficient was 0.90 for TFPy, 0.91 for TFVP, and 0.90 for TPE-TFPy. A stock solution of three AIEgens comprising of 1 μM TFPy, 10 μM TFVP, and 1 μM TPE-TFPy was utilized to incubate with Hela cells, followed by imaging analysis excited with 488 nm filter.
In vitro cellular imaging was carried out to evaluate their subcellular organelle targeting property by confocal laser scanning microscopy (CLSM) using HeLa cell as model cell line. Thanks to the analogous maximum absorption of three AIEgens, fluorescence images can be acquired simultaneously using the same excitation at 488 nm. […] Besides, when HeLa cells were cultured with these three AIEgens simultaneously, all of mitochondria, cell membrane and lysosome were highly emissive (FIG. 3D). It was inferred that the mitochondria-staining behavior of TFPy could be attributed to its high efficiency of electrophoretic transmembrane migration, as well as appropriate binding ability between positively charged pyridinium moiety and the negatively charged interior of the transmembrane potential of mitochondria. The low permeability coefficients resulted from the quite high free energy barrier of TFVP at membrane center could lead to its specific accumulation. In the case of TPE-TFPy, it tends to form nano-sized aggregates in culture media due to the high hydrophobicity, and the in-situ generated aggregates can internalize into lysosome of HeLa cells through endocytosis and specifically light up lysosome upon photoexcitation.

4T1 cells = assay: 4T1 cell imaging / co-localization with commercial organelle probes; type: cell-based; conditions: for organelle towards which strong affinity is exhibited: 4T1 cell line; for Pearson's coefficient (co-localization): 4T1 cells, co-staining with commercial probes
Protocol: Similar co-staining procedure for Hela cell was applied on 4T1 cell. The calculated Pearson's coefficient was 0.90 for TFPy, 0.91 for TFVP, and 0.90 for TPE-TFPy.
Motivated by the excellent targetability and specificity of three diverse organelle-targeting AIEgens, photostability was also carefully investigated as it is an essential parameter to evaluate a fluorescence imaging agent. Photostability assessment was carried out by continuous irradiation and sequential scanning with confocal microscope. […] With HeLa cell imaging and photostability data in hand, additional cellular uptake experiment using 4T1 cell line was performed as preliminary study for in vivo experiment.

HeLa cell = assay: MTT cytotoxicity / PDT assay, HeLa cell line; type: cell-based; conditions: 5 μM, white light 20 min (20 mW/cm^2)
Protocol: 3-(4,5-Dimethylthiazol-2-yl)-2,5-diphenyltetrazolium bromide (MTT) assay was utilized to quantitatively measure the cytotoxicity of TFPy, TFVP, TPE-TFPy, and three in one group based on both Hela cell line and 4T1 cell line. The three in one group was consist of one third concentration of TFPy, TFVP, and TPE-TFPY. Both cancer cell lines were seeded in DMEM media in a 96-well round-bottom microplate with a density of 1×10^4 cells per well. The AIEgens (TFPy, TFVP, TPE-TFPy, and three in one) were added at different concentrations of 0, 0.25, 0.5, 1, 2.5, and 5 μM after replacing the medium, and was incubated with different cell lines respectively for 20 min, followed by irradiation with white light for 20 min (20 mW/cm^2); and another array of plates with cells were kept in the dark as control. After 24 h incubation, 10 uL MTT (5 mg/mL in PBS) was added into each well. 4 hours later, DMSO was added into wells to dissolve the precipitated formazan. Finally, the absorption of each well at 595 nm was recorded via a plate reader (Perkin-Elmer Victor3™). Each trial was performed with 6 wells in parallel.
Cytotoxicity of photosensitizer is a non-negligible factor to take into consideration. […] Consequently, quantitative evaluation of PDT effect was applied on both HeLa Cell and 4T1 cell line through standard methylthiazolyldiphenyltetrazolium bromide (MTT) assay. Each AIEgen and an experimental group named “three in one” were evaluated. The “three in one” group was comprised of one third concentration of each AIEgen (⅓ TFPy, ⅓ TFVP, and ⅓ TPE-TFPy) to assure the overall concentration as same as other experimental groups. […] However, upon irradiation with light for 20 min, HeLa cell suffered severe viability loss with only 10% remained when the “three in one” group was at a concentration of 2.5 μM (FIG. 5C).

C[n+]1ccc(C=Cc2ccc(-c3ccc(N(c4ccccc4)c4ccc(C(=C(c5ccccc5)c5ccccc5)c5ccccc5)cc4)cc3)o2)cc1.F[P-](F)(F)(F)(F)F [TPE-TFPy]
λabs [1]: 490 nm | λem (Soln.) [1]: 672 nm | ΦF (Aggr.) [1]: 4.2% | ΦF (Soln.) [1]: 0.5% | ΦF (Solid.) [1]: 1.1% | λem (Aggr.) [1]: 664 nm | Iaggr,max/Isoln [1]: 26.4 | stokes shifts [1]: ca. 200 nm | λem (Solid.) [1]: 683 nm | ε [1]: 31000 M⁻¹ cm⁻¹ | ROS generation efficacy (decrease of ABDA absorption at 378 nm) [2]: much higher than Rose Bangel | subcellular organelle visualized after incubation (HeLa cells): lyso some | Pearson's coefficient (co-localization efficiency) (HeLa cells): 0.90 | organelle towards which strong affinity is exhibited (4T1 cells): lysosome | Pearson's coefficient (co-localization) (4T1 cells): 0.90 | cell viability upon light irradiation (HeLa cell): 15%

C[n+]1ccc(C=Cc2ccc(-c3ccc(N(c4ccccc4)c4ccccc4)cc3)o2)cc1.F[P-](F)(F)(F)(F)F [TFPy]
λabs [1]: 485 nm | λem (Soln.) [1]: 686 nm | ΦF (Aggr.) [1]: 10% | ΦF (Soln.) [1]: 0.4% | ΦF (Solid.) [1]: 0.5% | λem (Aggr.) [1]: 660 nm | Iaggr,max/Isoln [1]: 12.6 | stokes shifts [1]: ca. 200 nm | λem (Solid.) [1]: 672 nm | ε [1]: 27000 M⁻¹ cm⁻¹ | ROS generation efficacy (decrease of ABDA absorption at 378 nm) [2]: better than Ce6, but not as efficient as Rose B angel | subcellular organelle visualized after incubation (HeLa cells): mitochondria | Pearson's coefficient (co-localization efficiency) (HeLa cells): 0.90 | organelle towards which strong affinity is exhibited (4T1 cells): mitochondria | Pearson's coefficient (co-localization) (4T1 cells): 0.90 | cell viability upon light irradiation (HeLa cell): 58%

C[N+](C)(C)CCC[n+]1ccc(C=Cc2ccc(-c3ccc(N(c4ccccc4)c4ccccc4)cc3)o2)cc1.[Br-].[Br-] [TFVP]
λabs [1]: 492 nm | λem (Soln.) [1]: 675 nm | ΦF (Aggr.) [1]: 5% | ΦF (Soln.) [1]: 0.4% | ΦF (Solid.) [1]: 0.6% | λem (Aggr.) [1]: 672 nm | Iaggr,max/Isoln [1]: 218 | stokes shifts [1]: ca. 200 nm | λem (Solid.) [1]: 690 nm | ε [1]: 28000 M⁻¹ cm⁻¹ | ROS generation efficacy (decrease of ABDA absorption at 378 nm) [2]: better than Ce6, but not as efficient as Rose B angel | subcellular organelle visualized after incubation (HeLa cells): cell membrane | Pearson's coefficient (co-localization efficiency) (HeLa cells): 0.91 | organelle towards which strong affinity is exhibited (4T1 cells): cellular membrane | Pearson's coefficient (co-localization) (4T1 cells): 0.91 | cell viability upon light irradiation (HeLa cell): 53%
